Where two headings read alike, the source gives them in different places.
Experiments:
MRP1 = test system: MRP1; set-up: method as in PMID 26502886; conditions: MRP1-mediated transport; cited from earlier work
BCRP = molecular target: T1, BCRP (Homo sapiens, UniProt Q9UNQ0); set-up: method as in PMID 28925930; conditions: following curcumin pretreatment; subjects with ABCG2 421CC genotype; cited from earlier work
T1 sequence (Q9UNQ0 1-655): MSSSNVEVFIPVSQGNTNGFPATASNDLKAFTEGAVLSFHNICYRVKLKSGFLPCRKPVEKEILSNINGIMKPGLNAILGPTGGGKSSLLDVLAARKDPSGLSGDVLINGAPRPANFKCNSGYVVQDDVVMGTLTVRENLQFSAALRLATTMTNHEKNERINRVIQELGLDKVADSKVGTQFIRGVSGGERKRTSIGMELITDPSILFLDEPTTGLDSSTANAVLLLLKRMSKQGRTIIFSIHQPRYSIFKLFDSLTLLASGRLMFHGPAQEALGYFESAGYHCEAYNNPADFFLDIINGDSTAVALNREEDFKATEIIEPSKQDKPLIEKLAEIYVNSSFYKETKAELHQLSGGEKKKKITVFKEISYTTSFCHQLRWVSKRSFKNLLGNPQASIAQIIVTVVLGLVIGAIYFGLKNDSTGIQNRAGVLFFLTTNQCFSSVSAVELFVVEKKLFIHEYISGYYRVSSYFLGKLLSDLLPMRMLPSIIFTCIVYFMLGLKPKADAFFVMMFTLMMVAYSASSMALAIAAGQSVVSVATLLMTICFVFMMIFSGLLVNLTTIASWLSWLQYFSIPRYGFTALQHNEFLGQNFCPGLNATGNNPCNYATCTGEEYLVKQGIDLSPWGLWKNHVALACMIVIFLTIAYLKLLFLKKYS

MRP2 = test system: MRP2; set-up: method as in PMID 26502886; conditions: MRP2-mediated transport; cited from earlier work
BCRP transporter = test system: BCRP transporter; set-up: method as in PMID 25587128; conditions: cited from earlier work
HeLa1A1 cells = experiment: Toxicity of DMC toward HeLa1A1 cells during excretion experiments; format: cell-based, human; conditions: DMC 4 μM
HeLa1A1 cell lysate = molecular target: T2, HeLa1A1 cell lysate (Homo sapiens, UniProt P22309); experiment: DMC-O-glucuronidation kinetics by HeLa1A1 cell lysate; format: in vitro ADME; conditions: for Km / Vmax: Michaelis-Menten model; for CLint: Vmax/Km
T2 construct: expressed in transfected cells; host or cells: HeLa cells stably overexpressing UGT1A1 (HeLa1A1), used as cell lysate
T2 sequence (P22309 26-533): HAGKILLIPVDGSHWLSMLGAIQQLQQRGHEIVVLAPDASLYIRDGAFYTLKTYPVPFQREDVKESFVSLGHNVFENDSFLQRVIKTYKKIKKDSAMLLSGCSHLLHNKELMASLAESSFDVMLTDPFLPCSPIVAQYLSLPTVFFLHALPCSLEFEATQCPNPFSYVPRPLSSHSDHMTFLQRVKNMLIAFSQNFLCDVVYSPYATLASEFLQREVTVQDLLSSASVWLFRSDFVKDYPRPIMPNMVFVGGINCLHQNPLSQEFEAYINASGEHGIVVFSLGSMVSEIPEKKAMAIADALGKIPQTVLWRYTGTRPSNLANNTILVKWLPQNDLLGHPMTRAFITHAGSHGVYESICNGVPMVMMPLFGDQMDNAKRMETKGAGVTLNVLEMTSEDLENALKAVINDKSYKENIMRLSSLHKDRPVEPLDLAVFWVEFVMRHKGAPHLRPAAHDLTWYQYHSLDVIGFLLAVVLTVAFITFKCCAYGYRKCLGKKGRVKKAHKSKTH
Method: HeLa1A1 cells were grown in 10-cm dishes for 72 h and then washed and harvested in 50 mM Tris buffer (pH 7.4). The collected cells were sonicated using […] in an ice-cold water bath (4°C). Subsequently, the cell lysates were centrifuged at 13,800 x g for 10 min (4°C). The supernatant was collected for use in the UGT glucuronidation activity assay. The protein concentration was determined using the bicinchoninic acid (BCA) assay (Beyotime, Shanghai, China). Due to the thermal stability of UGT1A1, the glucuronidation activity of UGT1A1 was not affected during sonication process.
(§1) The glucuronidation assay was performed as previously described. Briefly, alamethicin (22 μg/mL), D-saccharic-1,4-lactone (4.4 mM), MgCl2 (0.88 mM), UGT1A1 (1.0 mg/mL) or HeLa1A1 cell lysates (2.3 mg/mL) and DMC (0.5 to 40 μM) were mixed in a 50 mM Tris buffer (pH 7.4). After a preincubation at 37°C for 5 min, UDPGA (3.5 mM) was added to the incubation system, and the mixture was further incubated. After 30 min, the reactions were terminated by the addition of ice-cold acetonitrile (200 μL). The mixed samples were centrifuged at 13,800 x g for 10 min, and the supernatant was analyzed using UHPLC.
(§2) The best model was selected based on a visual inspection of the Eadie-Hofstee plots. Briefly, the rates (V) of glucuronide formation at various substrate concentrations (S) were fitted based on the standard Eq (3). Km represents the Michaelis-Menten constant and Vmax represents the maximum rate of glucuronidation. The intrinsic clearance (CLint) was derived from Vmax/Km. Model fitting and parameter estimation were performed by GraphPad Prism V5 software (SanDiego, CA, USA).

SULTs = test system: SULTs; set-up: method as in PMID 18480186; conditions: cited from earlier work
[1] = set-up: method as in PMID 24480327; conditions: 2 g curcuminoids incl. 12% DMC orally, two healthy volunteers; below detection limit; cited from earlier work
CYP2C9 = test system: CYP2C9; set-up: method as in PMID 21287405; conditions: human CYP2C9; cited from earlier work
UGT1A10 = test system: UGT1A10; set-up: method as in PMID 17628876; conditions: cited from earlier work
UGT2B7 = test system: UGT2B7; set-up: method as in PMID 17628876; conditions: cited from earlier work
CYP3As = test system: CYP3As; set-up: method as in PMID 18480186; conditions: cited from earlier work
CYP1A2 = test system: CYP1A2; set-up: method as in PMID 21287405; conditions: human CYP1A2; cited from earlier work
UGT1A8 = test system: UGT1A8; set-up: method as in PMID 17628876; conditions: cited from earlier work
[2] = test system: human intestinal P-glycoprotein (P-gp); set-up: method as in PMID 19879740; conditions: cited from earlier work
UGT1A3 = test system: UGT1A3; set-up: method as in PMID 17628876; conditions: cited from earlier work
CYP3A4 = test system: CYP3A4; set-up: method as in PMID 21287405; conditions: human CYP3A4; cited from earlier work
UGT1A1 [3] = molecular target: T3, UGT1A1 (Homo sapiens, UniProt P22309); experiment: DMC-O-glucuronidation kinetics by recombinant UGT1A1; format: in vitro ADME; set-up: purchased Corning Biosciences; conditions: for CLint: Vmax/Km; for Vmax: UGT1A1, Michaelis-Menten model
T3 sequence (P22309 26-533): T2 sequence (P22309 26-533)
Method: as §1, §2

[4] = set-up: method as in earlier work; conditions: cited from earlier work
UGT1A1 [5] = test system: UGT1A1; set-up: method as in PMID 17628876; conditions: cited from earlier work
2C9 = test system: 2C9; set-up: method as in PMID 18480186; conditions: cited from earlier work
UGTs = test system: UGTs; set-up: method as in PMID 18480186; conditions: cited from earlier work
[6] = formation of G1, HeLa1A1 cell lysate
[7] = formation of G2, HeLa1A1 cell lysate

COc1cc(/C=C/C(=O)CC(=O)/C=C/c2ccc(O)c(OC)c2)ccc1O [curcumin]
IC50 (MRP1): 15 µM | increase in AUC of orally administered salazosulfapyridine (SASP) (BCRP): 3.2 fold | IC50 (MRP2): 5 µM | Ki (BCRP transporter): 0.7 µM

Demethoxycurcumin [DMC]
toxicity toward HeLa1A1 cells (HeLa1A1 cells): did not exert significant toxicity | Km (HeLa1A1 cell lysate; [6]): 5 ± 1.3 µM | Vmax (HeLa1A1 cell lysate; [6]): 264.5±22.3 ( ^***) pmol/min/mg | CLint (HeLa1A1 cell lysate; [6]): 53.0±14.5 ( ^***) μL/min/mg | Km (HeLa1A1 cell lysate; [7]): 3.8 ± 0.9 µM | Vmax (HeLa1A1 cell lysate; [7]): 167.4±11.3 (^###) pmol/min/mg | CLint (HeLa1A1 cell lysate; [7]): 43.9±10.4 (^###) μL/min/mg | IC50 (SULTs): 1.7 µM | DMC concentration [1]: < 2.0 ng/mL | IC50 (CYP2C9): 1.4 µM | catalytic activity (glucuronidation of DMC) (UGT1A10): less than 1100 pmol/min/mg | catalytic activity (glucuronidation of DMC) (UGT2B7): less than 1100 pmol/min/mg | IC50 (CYP3As): 31.5 µM | IC50 (CYP1A2): 34 µM | catalytic activity (glucuronidation of DMC) (UGT1A8): less than 1100 pmol/min/mg | inhibition of P-gp activities [2]: capable of inhibiting | catalytic activity (glucuronidation of DMC) (UGT1A3): less than 1100 pmol/min/mg | IC50 (CYP3A4): 7 µM | Km (UGT1A1 [3]; formation of G1, UGT1A1, Michaelis-Menten model): 4.5 ± 0.9 µM | CLint (UGT1A1 [3]; formation of G1, UGT1A1): 225.9 ± 47.3 µL/min/mg | Vmax (UGT1A1 [3]; formation of G1 from DMC (0.5-40 μM)): 1006.0 ± 62.8 pmol/min/mg | Km (UGT1A1 [3]; formation of G2, UGT1A1, Michaelis-Menten model): 2.7 ± 0.5 µM | CLint (UGT1A1 [3]; formation of G2, UGT1A1): 212.6 ± 38.3 µL/min/mg | Vmax (UGT1A1 [3]; formation of G2 from DMC (0.5-40 μM)): 576.1 ± 27.0 pmol/min/mg | tissue distribution of free DMC ([4]; heart): ~140 ng/g | tissue distribution of free DMC ([4]; intestine): ~150000 ng/g | tissue distribution of free DMC ([4]; kidney): ~80 ng/g | tissue distribution of free DMC ([4]; liver): approximately 120 ng/g | tissue distribution of free DMC ([4]; spleen): ~50 ng/g | catalytic activity (glucuronidation of DMC) (UGT1A1 [5]): approximately 1600 pmol/min/mg | IC50 (2C9): 8.8 µM | IC50 (UGTs): 13.9 µM
